Test results: publication PMC9964404, “Molecular Modeling and In Vitro Evaluation of Piplartine Analogs against Oral Squamous Cell Carcinoma” (Molecules, 2023)
Where two headings read alike, the source gives them in different places.

Experiments:
SCC9 cells [1] = test: MTT cell viability (cytotoxicity) assay, SCC9; assay type: cell-based, human; conditions: Homo sapiens
Experimental: (§1) SCC cells (SCC9 and SCC4), derived from human tongue OSCC, were obtained by (ATCC® CRL-1629 and CRL-1624) and maintained in DMEM/F12 1:1 medium (Dulbecco’s modified Eagle’s medium and Ham’s F12 medium, Gibco (Thermo Fisher, Waltham, MA, USA), supplemented with 10% (v/v) FBS (Fetal Bovine Serum; Invitrogen, Thermo Fisher, Waltham, MA, USA) and 400 ng/mL hydrocortisone (Sigma-AldrichCo., St. Louis, MO, USA). Primary normal gingival fibroblast human (PCS201 018TM) and other tumor cells B16-F10 (CRL-6475), Hep G2 (HB-8065), and HT-29 (HTB-38) were also obtained at ATCC and maintained in DMEM supplemented with 10% (v/v) FCS. Cells were cultured in a humidified environment containing 5% CO2 at 37 °C. For all experiments, the compounds were solubilized in DMSO (Sigma-Aldrich) for a final concentration of 100 mM. From this dilution, other concentrations were made to carry out the cell viability assay. Carboplatin (Fauldcarbo®; Libbs Farmacêutica, São Paulo, SP, Brazil) was used as a control antitumor compound.
(§2) The viability of cancer cells and primary fibroblasts was tested using the MTT assay as described in MACHADO et al., 2021 [49]. Briefly, cancer cells (5 × 10^3 cells/well) were plated in duplicate in a 96-well plate, as indicated. DMSO was diluted in culture medium at the same concentrations and was used as a negative control, representing 100% cell viability. After 48 h of treatment, cells were incubated for 3.5 h with 5 mg/mL of MTT reagent (3,4,5-dimethiazol-2,5-diphenyltetrazoliumbromide) (Sigma-Aldrich Co., St. Louis, MO, USA) diluted in culture medium. Subsequently, the formazan crystals were dissolved by MTT solvent (50% Methanol and 50% DMSO), and the absorbance was read at 560 nm using the EPOCH microplate spectrophotometer (BioTekInstruments, Winooski, VT, USA).
(§3) IC50 values for the MTT assay were obtained by non-linear regression using GraphPad Prism 5.0 software (GraphPad, San Diego, CA, USA) from at least three independent experiments. Data are presented as means, ± standard deviation (SD). A log dose response (inhibitor) vs. response curve using the least square method was used to determine the IC50 and SD of the data. The selectivity index was calculated as: S.I. = IC50 of the compound in fibroblasts/IC50 of the same compound in tumor cells.

[2] = test system: Primary Gingival Fibroblast; test: MTT cell viability assay, normal fibroblasts; assay type: cell-based, human; conditions: Homo sapiens, Fibroblast, 48 h treatment
Experimental: as §1, §2, §3

SCC4 cells = test: MTT cell viability assay, SCC4; assay type: cell-based, human; conditions: Homo sapiens, SCC-4, 48 h treatment, read-out: SCC4 IC50
Experimental: as §1, §2, §3

[3] = test system: Oral Tumor Cells (SCC9, SCC4); test: MTT cell viability assay, average of OSCC lines SCC9 and SCC4; assay type: cell-based, human; conditions: Homo sapiens
Experimental: as §1, §2
(§4) IC50 values for the MTT assay were obtained by non-linear regression using GraphPad Prism 5.0 software (GraphPad, San Diego, CA, USA) from at least three independent experiments. […] The selectivity index was calculated as: S.I. = IC50 of the compound in fibroblasts/IC50 of the same compound in tumor cells.

B16-F10 (melanoma) = test: MTT cell viability assay, B16-F10; assay type: cell-based; conditions: Mus musculus
Experimental: as §1, with “For all experiments, the compounds were solubilized in DMSO (Sigma-Aldrich) for a final concentration of 100 mM. From this dilution, other concentrations were made to carry out the cell viability assay. Carboplatin (Fauldcarbo®; Libbs Farmacêutica, São Paulo, SP, Brazil) was used as a control antitumor compound.” left out
(§5) The viability of cancer cells and primary fibroblasts was tested using the MTT assay as described in MACHADO et al., 2021 [49]. […] Subsequently, the formazan crystals were dissolved by MTT solvent (50% Methanol and 50% DMSO), and the absorbance was read at 560 nm using the EPOCH microplate spectrophotometer (BioTekInstruments, Winooski, VT, USA).
as §4

HEP G2 (hepatocarcinoma) = test: MTT cell viability assay, HEP G2; assay type: cell-based
Experimental: as §1, with “For all experiments, the compounds were solubilized in DMSO (Sigma-Aldrich) for a final concentration of 100 mM. From this dilution, other concentrations were made to carry out the cell viability assay. Carboplatin (Fauldcarbo®; Libbs Farmacêutica, São Paulo, SP, Brazil) was used as a control antitumor compound.” left out
as §5, §4

[4] = test system: HT-29 (colon adenocarcinoma); test: MTT cell viability assay, HT-29; assay type: cell-based
Experimental: as §1, with “For all experiments, the compounds were solubilized in DMSO (Sigma-Aldrich) for a final concentration of 100 mM. From this dilution, other concentrations were made to carry out the cell viability assay. Carboplatin (Fauldcarbo®; Libbs Farmacêutica, São Paulo, SP, Brazil) was used as a control antitumor compound.” left out
as §5, §4

Hemolysis assay = assay type: cell-based; conditions: human erythrocytes
Experimental: Human blood was used as approved by the Research Ethics Committee of the Fluminense Federal University–Nova Friburgo, RJ (CAAE: 43134721.4.0000.5626). The erythrocytes were collected by centrifugation at 1500 rpm for 15 min, washed with PBS (phosphate buffer saline) and 10 mM glucose, and counted in an automatic cells counter (Thermo Fisher, Waltham, MA, USA). The erythrocytes were then plated in 96-well plates at a concentration of 4 × 10^8/well in triplicate, and 10 µL of the compounds were added at a final concentration of 1000 µM in PBS with glucose (final volume of 100 µL). Ten microliters of PBS were used as negative control and 10 µL of PBS with 0.1% Triton ×100 as a positive control. Data reading was performed with EPOCH (BioTek Instruments, Winooski, VT, USA) at 540 nm absorbance, and statistical data were generated with the GRAPHPAD Prism 5.0 program (Intuitive Software for Science, San Diego, CA, USA).

SCC9 cells [5] = test: Phosphatidylserine exposure analysis (annexin V-FITC / P.I., flow cytometry); assay type: cell-based, human; conditions: SCC9, 48 h
Experimental: Cells of the SCC9 cell line were plated in six-well plates (5 × 10^5 cells/well), trypsinized 48 h after treatment, labeled using the Annexin V-FITC Apoptosis Detection Kit according to the manufacturer’s protocol (#BMS500FI/300, Invitrogen), and analyzed by flow cytometry.

SCC9 cells [6] = test: SubG1 analysis (propidium iodide DNA content); assay type: cell-based, human; conditions: SCC9, 48 h
Experimental: (§6) To evaluate the action of the compound 9 on the cell cycle, cells of the SCC9 lineage were plated in a six-well plate (5 × 10^5 cells/well) as described in LUCENA et al., 2016. After 48h of treatment, cells were trypsinized and stained with propidium iodide (75 µM; Sigma) in the presence of NP-40 (Sigma). DNA content was analyzed by collecting 10,000 events using a FACScalibur flow cytometer. Data were analyzed using CellQuest (BD Biosciences) and FlowJo (Tree Star Inc., Ashland, OR, USA) software. (Version 9.9.4).

SCC9 cells [7] = test: Caspase 3/7 analysis (flow cytometry); assay type: cell-based, human; conditions: SCC9, 2 × IC50, 48 h
Experimental: For active caspase detection, 5 × 10^4 SCC9 cells were plated in a 24-well plate containing 1 mL of DMEM/F12 with 10% FBS per well. CellEvent™ Caspase-3/7 reagent (#R37111, Invitrogen) was diluted in culture medium according to the manufacturer’s instructions. Twenty-four hours after plating, cells were treated with Caspase-3/7 reagent and 2× IC50 of 9 or DMSO as a control. Cells were analyzed by flow cytometry after 48 h of treatment.

SCC9 cells [8] = test: Cell cycle analysis (propidium iodide); assay type: cell-based, human; conditions: SCC9, 48 h
Experimental: as §6

mouse erythrocytes = test: Hemolytic activity in mouse erythrocytes; assay type: cell-based; conditions: mouse erythrocytes as printed

With `COc1ccc(COC(=O)c2cc(OC)c(OC)c(OC)c2)cc1` [Compound 9, 4-Methoxy-benzyl 3,4,5–trimethoxybenzoate] the IC50 (SCC9 cells [1]; SCC-9, 48 h, read-out: SCC9 IC50 (µg/mL)) was 15.4 µg/mL, the IC50 (SCC9 cells [1]; SCC-9, 48 h treatment, MTT, read-out: SCC9 IC50) was 46.2 µM and the IC50 ([2]; read-out: Primary Gingival Fibroblast IC50) was 741 µM. For the same molecule, the IC50 ([2]; read-out: Primary Gingival Fibroblast IC50 (µg/mL)) was 246 µg/mL, the IC50 (SCC4 cells) was 49.8 µM and the IC50 [3] was 48 µM. The IC50 (B16-F10 (melanoma)) was 73.3 µM, the IC50 (HEP G2 (hepatocarcinoma); HEP G2) was 6.63 µM and the IC50 (HEP G2 (hepatocarcinoma); Homo sapiens, HepG2, HEP G2) was < 10 µM. For the same molecule, the IC50 ([4]; HT-29) was 7.31 µM, the IC50 ([4]; Homo sapiens, HT-29, HT-29) was < 10 µM and the hemolysis at 1000 µM (Hemolysis assay) was < 1%. For the same molecule, the “annexin V single- and/or double-positive (PI+) labeling” value (SCC9 cells [5]) was ~ 17%, the “increase in annexin V labeling versus control” value (SCC9 cells [5]) was “four-fold increase” and the “DNA fragmentation (SubG1 DNA content)” value (SCC9 cells [6]) was ~ 21%. The “Active caspase 3/7” value (SCC9 cells [7]) was ~ 66%, the “Cycle Phase % G2/M” value (SCC9 cells [8]) was ~ 59% and the hemolytic activity (mouse erythrocytes) was “did not reveal hemolytic activity”.
